# Source: patent US12653830B2, “Substituted imidazoquinoxaline compounds and uses thereof” (Impact Therapeutics (Shanghai), Inc, priority 2019, dated 2026)
# Read-outs that look alike come from different tables or passages of the source.
# Experiments:
# [1] = test system: human colon cancer cell SW620; assay: MTT proliferation assay in combination with CPT-11, SW620; assay type: cell-based; settings: medium containing 205 nM CPT-11, 5 days, read-out: IC50, inhibition of proliferation of SW620 combined with CPT-11
# Method: Determination of the Inhibitory Effect of the Compound of Example 2 and its Analogues in Combination with CPT-11 on the Proliferation of Human Colon Cancer Cell SW620 Using MTT Assay
# The human colon cancer cells SW620 were cultured in RPMI 1640 medium with 10% FBS and used at about 90% confluence for experiments. The SW620 cells were digested with trypsinase and centrifuged at 800 rpm for 5 minutes. The supernatant was discarded and the cell pellets were resuspended with fresh medium (RPMI 1640+10% FBS). The cells were seeded into 96-well cell culture plates with appropriate cell density and incubated at 37° C. overnight in a 5% CO2 incubator. […] The first concentration was 1 μM or 0.333 μM, the last concentration was DMSO negative control (0 μM). 5 μL of solutions of each concentration was added to 120 μL of medium (a 25 times dilution) and mixed by shaking. The cells were cultured overnight and the culture medium was replaced with 195 μL/well of fresh medium containing 205 nM CPT-11 and 5 μL/well of medium containing the test compound (the final concentration of DMSO was 1%). The culture plates were returned to incubator and cultured at 37° C., 5% CO2 for 5 days. At the day of experiment, medium was discarded and replaced with 100 μL of fresh serum-free DMEM medium containing MTT (0.5 mg/mL), and the culture was continued. 4 hours later, the medium was discarded and replaced with 100 μL/well of DMSO, the plate was shaken for 10 minutes in dark and the absorbance was measured at the wavelengths of 552 and 690 nm using a multi-function plate reader. Data were analyzed by Graph Pad Prism 6.0. The inhibitory effects of compounds on cell proliferation were plotted based on cell viability vs. the logarithm of compound concentration. Cell viability %=(ODcompound−ODbackground)/(ODDMSO−ODbackground)×100.
# Table 3 summarizes the inhibitory effect data (IC50) of some compounds combined with CPT-11 on the proliferation of human colon cancer cell SW620.
# [2] = target: T1, ATM kinase (Homo sapiens, UniProt Q13315); assay: In vitro ATM kinase assay (Cisbio HTRF, p53 substrate); assay type: biochemical; settings: 30 μM ATP; for inhibition at 0.0001 µM: Conc. 0.1 nM; for inhibition at 0.0001 µM / inhibition at 0.001 µM / inhibition at 0.01 µM: read-out: Inh % (inhibitory effect on ATM kinase activity); for inhibition at 0.001 µM: Conc. 1 nM; for inhibition at 0.01 µM: Conc. 10 nM
# T1 construct: purchased Eurofins 14-933
# Method: Determination of the Inhibitory Effect In Vitro of the Compound of Example 2 and its Analogues on ATM Using In Vitro ATM Kinase Assay
# ATM enzymatic activity was measured using Cisbio's HTRF reagent in a 384-well plate (Greiner, #784075). […] The mixtures were centrifuged at 1000 rpm for 1 minute, and reacted in dark for 30 minutes at room temperature. Then, 5 μL of EDTA termination solution (250 mm) was added to terminate the reaction. After 5 μL of detection mixture (Anti-phospho-p53 (ser15)-K (Cisbio, #61P08KAE, 0.084 ng/μL) and Anti-GST-d2 (Cisbio, #61GSTDLA, 5.00 ng/μL)) was finally added to each well, the mixtures were cultured at room temperature over night, and the fluorescence values at 665 nm and 615 nm were measured on Envision 2104. The final concentration of each reagent of the experiment was as follows: 12.5 mM HEPES (pH8.0), 0.5% glycerol, 0.005% Brij-35, 0.625 mM DTT, 0.0125% BSA, 15 nM p53, 0.25 ng/μL ATM, 30 μM ATP, 2.5 mM Mg(AcO)2, 2.5 mM MnCl2, 62.5 mM EDTA, 0.021 ng/μL Anti-phospho-p53, 1.25 ng/μL Anti-GST-d2.
# Relative fluorescence ratio was calculated: Ratio665 nm/615 nm−Ratiobackground, and inhibition rate %=(1−(relative fluorescence ratio of test compound well−relative fluorescence ratio of positive control well)/(relative fluorescence ratio of negative control well−relative fluorescence ratio of positive control well))×100 was calculated. Data were analyzed using GraphPad Prism6.0 and fitted using the curve equation: Y=Bottom+(Top−Bottom)/(1+10^((Log IC50−X)*HillSlope)), and IC50 values were calculated.
# [3] = test system: human breast cancer cell MDA-MB-468; assay: MTT proliferation assay, MDA-MB-468; assay type: cell-based; settings: Homo sapiens, MDA-MB-468, 168 h, 7 days, single agent, read-out: IC50, inhibition of proliferation of MDA-MB-468
# Method: Determination of the Inhibitory Effect of the Compound of Example 2 and its Analogues on the Proliferation of Human Breast Cancer Cell MDA-MB-468 Using MTT Assay
# The human breast cancer cells MDA-MB-468 were cultured in RPMI 1640 medium with 10% FBS and used at 90% confluence. The MDA-IVB-468 cells were digested with trypsinase and centrifuged at 800 rpm for 5 minutes. The supernatant was discarded and the cell pellets were resuspended with fresh medium and counted. Cells were seeded to 96-well cell culture plates with appropriate cell density and incubated overnight at 37° C., 5% CO2. […] 5 μL of solutions of each concentration was added to 120 μL of medium (diluted by 25 times) and mixed by shaking. The culture medium of cells cultured overnight was discarded and replaced with 195 μL/well of fresh medium (RPMI 1640+5% FBS) and 5 μL/well of diluted medium containing the test compound of corresponding concentrations (the final concentration of DMSO was 1%), and the culture plate was then returned to 5% CO2 incubator at 37° C. for 7 days (on the fourth day, dressing was changed once and culture was continued). On the day of experiment, culture medium was discarded and replaced with 100 μL/well of fresh serum-free DMEM medium containing MTT (0.5 mg/mL), and the culture was continued. After 4 hours, medium was discarded and replaced with 100 μL/well of DMSO, the plates were shaken for 10 minutes in darkness and the absorbance was measured at the wavelengths of 552 and 693 nm using a multi-function plate reader. Graph Pad Prism 6.0 was used to analyze the data. The inhibitory effects of compounds on cell proliferation were plotted based on cell viability vs. the logarithm of compound concentration. Cell viability %=(ODcompound−ODbackground)/(ODDMSO−ODbackground)×100.
# Table 4 summarizes the inhibitory effect data (IC50) of some compounds on the proliferation of human breast cancer cell MDA-MB-468.
# T1 sequence (Q13315 whole entry): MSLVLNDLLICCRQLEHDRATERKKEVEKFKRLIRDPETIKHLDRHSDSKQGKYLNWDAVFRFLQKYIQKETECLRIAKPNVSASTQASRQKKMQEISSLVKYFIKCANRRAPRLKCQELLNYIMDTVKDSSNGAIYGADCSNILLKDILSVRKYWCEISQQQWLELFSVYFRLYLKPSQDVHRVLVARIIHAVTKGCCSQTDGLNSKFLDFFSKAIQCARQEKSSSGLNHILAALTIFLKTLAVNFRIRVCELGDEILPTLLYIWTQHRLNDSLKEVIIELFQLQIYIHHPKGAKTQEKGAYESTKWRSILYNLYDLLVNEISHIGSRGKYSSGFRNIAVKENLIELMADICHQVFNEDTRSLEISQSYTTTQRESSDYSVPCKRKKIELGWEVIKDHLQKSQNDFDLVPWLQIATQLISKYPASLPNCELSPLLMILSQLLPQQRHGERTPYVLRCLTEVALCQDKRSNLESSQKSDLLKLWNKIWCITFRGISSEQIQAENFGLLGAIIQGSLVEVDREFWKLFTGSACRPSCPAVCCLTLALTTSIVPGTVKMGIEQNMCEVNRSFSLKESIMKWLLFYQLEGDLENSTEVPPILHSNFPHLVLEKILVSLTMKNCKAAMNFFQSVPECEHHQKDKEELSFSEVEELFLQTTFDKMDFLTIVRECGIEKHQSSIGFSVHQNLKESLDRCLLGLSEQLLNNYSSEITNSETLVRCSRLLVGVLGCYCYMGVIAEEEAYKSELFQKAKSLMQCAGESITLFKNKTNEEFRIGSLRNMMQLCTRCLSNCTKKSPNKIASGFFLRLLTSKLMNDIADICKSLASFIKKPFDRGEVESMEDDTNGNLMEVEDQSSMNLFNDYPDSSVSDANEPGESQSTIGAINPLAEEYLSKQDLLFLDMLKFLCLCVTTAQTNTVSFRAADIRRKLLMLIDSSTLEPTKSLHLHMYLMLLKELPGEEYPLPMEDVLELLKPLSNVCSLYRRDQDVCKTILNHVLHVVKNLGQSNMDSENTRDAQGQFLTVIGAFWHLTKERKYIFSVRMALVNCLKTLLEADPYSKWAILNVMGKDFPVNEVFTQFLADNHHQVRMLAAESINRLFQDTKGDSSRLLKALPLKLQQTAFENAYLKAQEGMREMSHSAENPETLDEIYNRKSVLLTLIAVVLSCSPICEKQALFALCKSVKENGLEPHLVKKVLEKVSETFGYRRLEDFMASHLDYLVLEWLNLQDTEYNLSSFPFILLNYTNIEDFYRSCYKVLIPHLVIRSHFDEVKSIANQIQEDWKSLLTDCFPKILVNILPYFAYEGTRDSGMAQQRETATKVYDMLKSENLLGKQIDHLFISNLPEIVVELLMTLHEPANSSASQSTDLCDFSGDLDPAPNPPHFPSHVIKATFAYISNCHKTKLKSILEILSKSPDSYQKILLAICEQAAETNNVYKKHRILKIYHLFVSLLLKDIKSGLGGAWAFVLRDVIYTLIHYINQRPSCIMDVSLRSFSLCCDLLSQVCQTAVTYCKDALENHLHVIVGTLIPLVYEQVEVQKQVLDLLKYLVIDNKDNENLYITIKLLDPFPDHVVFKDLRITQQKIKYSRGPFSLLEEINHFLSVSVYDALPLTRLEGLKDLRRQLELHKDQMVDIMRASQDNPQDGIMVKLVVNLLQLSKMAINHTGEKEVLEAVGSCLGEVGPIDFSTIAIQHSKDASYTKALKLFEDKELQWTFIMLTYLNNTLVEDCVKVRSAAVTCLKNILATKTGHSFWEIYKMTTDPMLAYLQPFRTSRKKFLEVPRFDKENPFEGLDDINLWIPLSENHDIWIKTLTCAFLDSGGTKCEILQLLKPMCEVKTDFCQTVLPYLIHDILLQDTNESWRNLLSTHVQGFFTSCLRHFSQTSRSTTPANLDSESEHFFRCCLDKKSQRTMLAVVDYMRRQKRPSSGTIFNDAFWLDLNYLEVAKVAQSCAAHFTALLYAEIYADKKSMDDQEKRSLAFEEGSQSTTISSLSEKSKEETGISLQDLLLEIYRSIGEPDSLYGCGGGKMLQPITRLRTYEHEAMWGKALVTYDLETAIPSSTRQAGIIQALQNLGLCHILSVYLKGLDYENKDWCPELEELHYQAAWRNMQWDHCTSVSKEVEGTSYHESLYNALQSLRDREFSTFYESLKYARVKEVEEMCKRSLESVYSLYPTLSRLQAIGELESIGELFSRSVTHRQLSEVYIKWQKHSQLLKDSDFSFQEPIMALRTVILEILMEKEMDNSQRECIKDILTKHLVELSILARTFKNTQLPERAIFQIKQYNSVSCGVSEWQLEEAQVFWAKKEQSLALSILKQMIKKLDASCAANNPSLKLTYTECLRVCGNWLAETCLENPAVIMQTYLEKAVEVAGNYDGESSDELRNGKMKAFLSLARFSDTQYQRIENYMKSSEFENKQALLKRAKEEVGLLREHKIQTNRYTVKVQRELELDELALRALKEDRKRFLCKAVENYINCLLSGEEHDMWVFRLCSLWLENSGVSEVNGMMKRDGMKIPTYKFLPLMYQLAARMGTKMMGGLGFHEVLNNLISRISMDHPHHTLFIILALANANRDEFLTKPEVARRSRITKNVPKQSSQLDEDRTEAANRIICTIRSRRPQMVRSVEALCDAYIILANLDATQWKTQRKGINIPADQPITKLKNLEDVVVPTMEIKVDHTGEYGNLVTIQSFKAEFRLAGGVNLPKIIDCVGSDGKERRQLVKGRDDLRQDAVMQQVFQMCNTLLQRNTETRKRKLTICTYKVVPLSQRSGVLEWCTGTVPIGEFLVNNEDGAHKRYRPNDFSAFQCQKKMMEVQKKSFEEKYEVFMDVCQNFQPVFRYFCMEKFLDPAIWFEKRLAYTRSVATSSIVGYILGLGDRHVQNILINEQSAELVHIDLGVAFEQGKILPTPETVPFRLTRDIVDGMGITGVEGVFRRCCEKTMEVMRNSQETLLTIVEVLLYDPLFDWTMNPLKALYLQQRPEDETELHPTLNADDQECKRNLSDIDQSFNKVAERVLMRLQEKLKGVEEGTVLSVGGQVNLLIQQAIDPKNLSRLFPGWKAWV
SMILES,IC50 [1] [nM],inhibition at 0.0001 µM [2] [%],inhibition at 0.001 µM [2] [%],inhibition at 0.01 µM [2] [%],IC50 [3] [nM],"IC50 ([1]; Homo sapiens, SW-620, 120 h) [nM]",IC50 [2] [nM]
"Cc1nc(C2CCOCC2)n2c1cnc1ccc(-c3ccc(N4CCC(N(C)C)CC4)c(Cl)c3)cc12 [Example 7, N,N-dimethyl-1-(2-chloro-4-(3-methyl-1-(tetrahydro-2H-pyran-4-yl)imidazo[1,5-a]quinoxalin-8-yl)phenyl)piperidin-4-amine]",25.9,18,86,96,22.6,–,–
Cc1nc(C2CCOCC2)n2c1cnc1ccc(-c3ccc(N4CCC(N(C)C)CC4)c(C(F)(F)F)c3)cc12 [Example 8],24.1,27,94,99,24.8,–,–
"Cc1nc(C2CCOCC2)n2c1cnc1ccc(-c3ccc(N4CCC(N)CC4)c(C(F)(F)F)c3)cc12 [Example 9, 1-(4-(3-methyl-1-(tetrahydro-2H-pyran-4-yl)imidazo[1,5-a]quinoxalin-8-yl)-2-(trifluoromethyl)phenyl)piperidin-4-amine]",24,28,96,99,23.1,–,–
"CNC1CCN(c2ccc(-c3ccc4ncc5c(C)nc(C6CCOCC6)n5c4c3)cc2C(F)(F)F)CC1 [Example 10, N-methyl-1-(4-(3-methyl-1-(tetrahydro-2H-pyran-4-yl)imidazo[1,5-a]quinoxalin-8-yl)-2-(trifluoromethyl)phenyl)piperidin-4-amine]",16.7,13,74,99,16.4,–,–
"CCNC1CCN(c2ccc(-c3ccc4ncc5c(C)nc(C6CCOCC6)n5c4c3)cc2C(F)(F)F)CC1 [Example 11, N-ethyl-1-(4-(3-methyl-1-(tetrahydro-2H-pyran-4-yl)imidazo[1,5-a]quinoxalin-8-yl)-2-(trifluoromethyl)phenyl)piperidin-4-amine]",30,11,78,97,31.1,–,–
"Cc1nc(C2CCOCC2)n2c1cnc1ccc(-c3ccc(OCCCN4CCCCC4)nc3)cc12 [Example 12, 3-methyl-8-(6-(3-(piperidin-1yl)propoxy)pyridin-3yl)-1-(tetrahydro-2H-pyran-4-yl)imidazo[1,5-a]quinoxaline]",15.7,40,91,98,14.4,–,–
"Cc1nn(C)cc1-c1ccc2ncc3c(C)nc(C4CCOCC4)n3c2c1 [Example 13, 8-(1,3-dimethyl-1H-pyrazol-4-yl)-3-methyl-1-(tetrahydro-2H-pyran-4-yl)imidazo[1,5-a]quinoxaline]",> 1000,–,–,15,782,–,–
"Cc1nc(N2CCOCC2)n2c1cnc1ccc(-c3ccc(OCCCN(C)C)nc3)cc12 [Example 14, N,N-dimethyl-3-((5-(3-methyl-1-morpholinylimidazo[1,5-a]quinoxalin-8-yl)pyridin-2-yl)oxy)propan-1-amine]",39.7,–,–,93,26,–,–
"Cc1nc(N2C[C@@H](C)O[C@@H](C)C2)n2c1cnc1ccc(-c3ccc(OCCCN(C)C)nc3)cc12 [Example 15, N,N-dimethyl-3-((5-(1-((2S,6R)-2,6-dimethylmorpholino)-3-methylimidazo[1,5-a]quinoxalin-8-yl)pyridin-2-yl)oxy)propan-1-amine]",–,–,–,–,7.98,9.3,0.31
"Cc1nc(N2CCCCC2)n2c1cnc1ccc(-c3ccc(OCCCN(C)C)nc3)cc12 [Example 16, N,N-dimethyl-3-((5-(3-methyl-1-(piperidin-1-yl)imidazo[1,5-a]quinoxalin-8-yl)pyridin-2-yl)oxy)propan-1-amine]",8.2,71,89,97,10.6,–,–
"Cc1nc(N2CCN(C)CC2)n2c1cnc1ccc(-c3ccc(OCCCN(C)C)nc3)cc12 [Example 17, N,N-dimethyl-3-((5-(3-methyl-1-(4-methylpiperazin-1-yl)imidazo[1,5-a]quinoxalin-8-yl)pyridin-2-yl)oxy)propan-1-amine]",27.4,9,55,91,20.9,–,–
"Cc1nc(N2C[C@@H](C)N(C)[C@@H](C)C2)n2c1cnc1ccc(-c3ccc(OCCCN(C)C)nc3)cc12 [Example 18, N,N-dimethyl-3-((5-(3-methyl-1-((3S,5R)-3,4,5-trimethylpiperazin-1-yl)imidazo[1,5-a]quinoxalin-8-yl)pyridin-2-yl)oxy)propan-1-amine]",6.5,30,87,98,6.4,–,–
"Cc1nc(C(C)C)n2c1cnc1ccc(-c3ccc(OCCCN(C)C)nc3)cc12 [Example 19, N,N-dimethyl-3-((5-(1-isopropyl-3-methylimidazo[1,5-a]quinoxalin-8-yl)pyridin-2-yl)oxy)propan-1-amine]",17.6,–,88,–,11.4,–,–
"Cc1nc(C(C)C)n2c1cnc1ccc(-c3ccc(OCCCN(C)C)c(F)c3)cc12 [Example 20, N,N-dimethyl-3-(2-fluoro-4-(1-isopropyl-3-methylimidazo[1,5-a]quinoxalin-8-yl)phenoxy)propan-1-amine]",35.9,–,82,–,21.3,–,–
"Cc1nc(C(C)C)n2c1cnc1ccc(-c3ccc(OCCCN(C)C)c(C(F)(F)F)c3)cc12 [Example 21, N,N-dimethyl-3-(4-(1-isopropyl-3-methylimidazo[1,5-a]quinoxalin-8-yl)-2-(trifluoromethyl)phenoxy)propan-1-amine]",29.6,–,67,–,16.4,–,–
